Laboratory results reported in patent publication US9017950B2, “Method for enhancing enzyme assays” (Luminescent MD, LLC, priority 2011, dated 2015).

Experiments:
Assay type in all cases: biochemical
HRP = target: T1, HRP (Armoracia rusticana, UniProt P00433); assay: Enzyme assay with OD4MI CL detection to quantify HRP in the presence of surfactant; details: for dynamic range of enzyme assay for quantifying HRP compared with absence of surfactant: surfactant at critical micelle concentration
T1 construct: purchased Sigma
T1 sequence (P00433 31-338 limits assumed): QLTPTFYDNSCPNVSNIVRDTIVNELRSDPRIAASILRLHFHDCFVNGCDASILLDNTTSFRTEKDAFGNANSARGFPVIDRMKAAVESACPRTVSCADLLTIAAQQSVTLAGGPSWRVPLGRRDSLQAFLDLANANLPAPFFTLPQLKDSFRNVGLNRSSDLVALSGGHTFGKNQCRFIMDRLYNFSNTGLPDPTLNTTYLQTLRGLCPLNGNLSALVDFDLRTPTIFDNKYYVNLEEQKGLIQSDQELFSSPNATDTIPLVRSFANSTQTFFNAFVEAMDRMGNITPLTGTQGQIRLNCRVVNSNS
Method: Various concentrations (0.5, 1.0, and 1.5%) of Triton® X surfactant derivatives (Triton® X-100, Triton® X-114, Triton® X-405, and Triton® X-705) were prepared in Tris-HCl buffer solution (pH 8.5).
Various surfactants (e.g., (2-Hydroxypropyl)-β-cyclodetrin, β-cyclodextrin, Carboxymethyl-β-cyclodextrin, Carbomethyl-β-cyclodextrin sodium salt, γ-cyclodextrin, Sodium dodecyl sulfate, Hexadecyltrimethylammonium bromide, Hexadecyltrimethylammonium chloride) of critical micelle concentration (CMC) were prepared in Tris-HCl buffer solution (pH 8.5).
As a substrate for ODI derivative CL detection, 2.0 μM Amplex® Red reagent in deionized water was prepared.
Various concentrations (0˜0.1 U/ml) of HRP containing 2.0 mM H2O2 was prepared in Tris-HCl buffer solution (pH 8.5).
1,1′-Oxalyldi-4-methyl-imidazole (OD4MI), one of ODI derivatives was formed from the reaction between 5.0 μM TCPO, and 10.0 μM 4-Methylimidazole (4MImH) in Ethyl acetate. 100 mM H2O2 was prepared in Isopropyl alcohol.
• 5. Mix and incubate 0.8 ml of Amplex® Red reagent (or deionized water), 0.1 ml of surfactant, one of various surfactants used in this research, and 0.1 ml of HRP containing H2O2 for 10 minutes in a 1.5 ml-centrifuge tube at room temperature. • 6. Pipette 10 μl of working solution into the assigned test tube (12×75 mm) or strip well. • 7. Insert the test tube into a luminometer or the strip well into a microplate luminometer. • 8. Read CL emitted when OD4MI and H2O2 are added into the test tube or strip well through two dispensers.

[1] = target: T2, PSA detection antibody-HRP conjugate (Armoracia rusticana, UniProt P00433); assay: Quantification of PSA using PSA detection antibody-HRP conjugate and OD4MI CL detection (CLEIA) in the presence of catalyst
T2 construct: PSA detection antibody (conjugated)
T2 sequence (P00433 31-338 limits assumed): T1 sequence (P00433 31-338 limits assumed)
Method: (§1) AccuLite® CLIA kit capable of quantifying PSA with luminol CL detection was used to develop new CLEIA method using ODI derivative CL detection. The kit is composed of 96 strip wells coated with monoclonal PSA primary antibody, PSA detection antibody-HRP conjugate, luminol as a substrate, reaction buffer, and washing buffer.
8 different PSA serum samples (0, 0.5, 1, 2, 5, 10, 25, 50 ng/ml), components of AccuLite® CLIA kit, were used as standard samples.
2.0 μM Amplex® Red reagent and 0.2 mM H2O2 in deionized water were prepared as described in Example 1 (A).
0.5 mM 4-Iodophenol was prepared in Tris-HCl buffer solution (pH 8.5).
2.0 mM 4-(1,2,4-triazol-1-yl) phenol was prepared in Tris-HCl buffer solution (pH 8.5).
0.8 ml of aqueous solution containing Amplex® Red reagent (2.0 μM) and H2O2 (0.2 mM) was mixed with 0.2 ml of 4-Iodophenol (or 2.0 mM 4-(1,2,4-triazol-1-yl) phenol).
(§2) OD4MI was formed from the reaction between 5.0 μM TCPO and 10.0 μM 4-Methylimidazole (4MImH) in Ethyl acetate. 100 mM H2O2 was prepared in Isopropyl alcohol.
• 12. Pipette 25 μl of PSA standard or test sample into a strip well. • 13. Add 100 μl of PSA detection antibody-HRP conjugate to the strip well • 14. Swirl the strip wells for 20 seconds. • 15. Incubate for 20 minutes at 37° C. • 16. Discard the contents of each strip wells. • 17. Wash each plate with 300 μl washing buffer. Repeat four additional times. • 18. Add 100 μl working solution containing 2.0 μM Amplex® Red reagent and 0.2 mM H2O2 to each strip well. • 19. Incubate the strip-well containing Amplex® Red reagent, H2O2, and 4-Iodophenol (or 2.0 mM 4-(1,2,4-triazol-1-yl) phenol) for 5.0 minutes at room temperature (21˜23° C.) in the dark. • 20. Pipette 10 μl of working solution into the assigned test tube (12×75 mm). • 21. Insert the test tube into a luminometer or the strip well into a microplate luminometer. • 22. Read (integration time: 0.5 seconds) emitted CL for 0.5 seconds when OD4MI and H2O2 are added into the test tube or strip well through two dispensers.

[2] = target: T3, AFP detection antibody-HRP conjugate (Armoracia rusticana, UniProt P00433); assay: Quantification of AFP using AFP detection antibody-HRP conjugate and OD4MI CL detection in the presence of Triton X-100; details: 0.1% Triton X-100, OD4MI CL detection, FIG. 6
T3 construct: AFP detection antibody (conjugated)
T3 sequence (P00433 31-338 limits assumed): T1 sequence (P00433 31-338 limits assumed)
Method: as §1, with “AFP” for “PSA”, “OD4MI” for “ODI derivative”, “detection in the presence of 0.1% Triton® X-100 surfactant.” for “detection.”
2.0 μM Amplex® Red reagent and 0.2 mM H2O2 in deionized water were prepared in water containing 0.1% Triton® X-100 surfactant.
as §2
• 12. Pipette 25 μl of AFP standard or test sample into a strip well. • 13. Add 100 μl of AFP detection antibody-HRP conjugate to the strip well • 14. Swirl the strip wells for 20 seconds. • 15. Incubate for 30 minutes at 37° C. • 16. Discard the contents of each strip wells. • 17. Wash each plate with 300 μl washing buffer. Repeat four additional times. • 18. Add 100 μl working solution containing 2.0 μM Amplex® Red reagent, 0.2 mM H2O2 and 0.1% Triton® X-100 surfactant in the strip well. • 19. […] Read (integration time: 0.5 seconds) emitted CL for 0.5 seconds when OD4MI and H2O2 are added into the test tube or strip well through two dispensers.

| Molecule | dynamic range of enzyme assay for quantifying HRP compared with absence of surfactant (HRP; OD4MI CL detection) | also measured |
| --- | --- | --- |
| CCCCCCCCCCCCCCCC[N+](C)(C)C.[Cl-] [Hexadecyltrimethylammonium chloride] | wider than that in the absence of surfactant | – |
| (2-Hydroxypropyl)-β-cyclodetrin | wider than that in the absence of surfactant | – |
| Carbomethyl-β-cyclodextrin sodium salt | wider than that in the absence of surfactant | – |
| CCCCCCCCCCCCCCCC[N+](C)(C)C.[Br-] [Hexadecyltrimethylammonium bromide] | wider than that in the absence of surfactant | – |
| Carboxymethyl-β-cyclodextrin | wider than that in the absence of surfactant | – |
| OC[C@H]1O[C@@H]2O[C@H]3[C@H](O)[C@@H](O)[C@@H](O[C@H]4[C@H](O)[C@@H](O)[C@@H](O[C@H]5[C@H](O)[C@@H](O)[C@@H](O[C@H]6[C@H](O)[C@@H](O)[C@@H](O[C@H]7[C@H](O)[C@@H](O)[C@@H](O[C@H]8[C@H](O)[C@@H](O)[C@@H](O[C@H]9[C@H](O)[C@@H](O)[C@@H](O[C@H]1[C@H](O)[C@H]2O)O[C@@H]9CO)O[C@@H]8CO)O[C@@H]7CO)O[C@@H]6CO)O[C@@H]5CO)O[C@@H]4CO)O[C@@H]3CO [γ-cyclodextrin] | wider than that in the absence of surfactant | – |
| OC[C@H]1O[C@@H]2O[C@H]3[C@H](O)[C@@H](O)[C@@H](O[C@H]4[C@H](O)[C@@H](O)[C@@H](O[C@H]5[C@H](O)[C@@H](O)[C@@H](O[C@H]6[C@H](O)[C@@H](O)[C@@H](O[C@H]7[C@H](O)[C@@H](O)[C@@H](O[C@H]8[C@H](O)[C@@H](O)[C@@H](O[C@H]1[C@H](O)[C@H]2O)O[C@@H]8CO)O[C@@H]7CO)O[C@@H]6CO)O[C@@H]5CO)O[C@@H]4CO)O[C@@H]3CO [β-cyclodextrin] | wider than that in the absence of surfactant | – |
| Oc1ccc(-n2cncn2)cc1 [4-(1,2,4-triazol-1-yl) phenol] | – | LOD, times lower than in the absence of catalyst [1]: ~10 times |
| Oc1ccc(I)cc1 [4-Iodophenol] | – | LOD, times lower than in the absence of catalyst [1]: about 20 times; LOD, times lower than in the presence of 4-(1,2,4-triazol-1-yl) phenol [1]: about 2 times |
| Triton® X-100 | – | dynamic range to quantify HRP compared with other Triton X derivatives (HRP; 1.0% surfactant, FIG. 5): wider than those in other Triton® X surfactant derivatives; effect on the reaction between Amplex Red reagent and H2O2 in the presence of HRP (HRP; OD4MI CL detection, FIG. 3 to 5): acting to interfere; dynamic range of enzyme assay to quantify HRP, upper end (HRP; higher Triton X-100 concentration, OD4MI CL detection, room temperature, FIG. 3): up to 0.1 U/ml; linear dynamic range for quantification of AFP [2]: 0˜1250 ng/ml |
| CCCCCCCCCCCCOS(=O)(=O)[O-].[Na+] [Sodium dodecyl sulfate] | wider than that in the absence of surfactant | – |
